Results on 1 compound are retold here after patent US6211425A, “Patch” (Saitama Daiichi Seiyaku Kabushiki Kaisha, priority 1996, dated 2001).

Entries after “also recorded” stand apart in the source; their conditions may differ.

Series [1] can be described thus: percutaneous absorption of formoterol (finding of the inventors). The conditions noted are these: formoterol and/or salts thereof not in a dissolved state.
The nature of series [2]: hydrolytic stability of formoterol (general statement). The format is physicochemical. The conditions noted are these: preparations having high water contents.

For the compound `COc1ccc(CC(C)NCC(O)c2ccc(O)c(NC=O)c2)cc1` (centres unmarked) [formoterol], the percutaneous absorption result in series [1] is “extremely poor percutaneous absorption”. The hydrolysis result in series [2] is reported as “hydrolyzed; also recorded: easily hydrolyzable”.
